Values after ≈ are worked out from the molar mass of the structure shown.
How the values were obtained:
SARS-CoV-2 [1] = test: microbe, parasite or virus in culture; conditions: Severe acute respiratory syndrome coronavirus 2, D614, Vero C1008
Description: Antiviral activity against SARS-CoV-2 D614 isolates infected in African green monkey Vero E6 cells assessed as reduction in plaque formation treated for 1 hr prior to infection with cells incubated for 30 mins by plaque reduction neutralization test

SARS-CoV-2 [2] = format: functional, organism-based, Severe acute respiratory syndrome coronavirus 2, G614, Vero E6
Spike glycoprotein = Spike glycoprotein (Severe acute respiratory syndrome coronavirus 2, UniProt P0DTC2); test: Binding affinity to RBD domain of SARS-CoV-2 spike protein assessed as dissociation constant by Isothermal Titration Calorimetry
[3] = Severe acute respiratory syndrome coronavirus 2, G614, Vero C1008, read-out: IC50

| SMILES | IC50 (SARS-CoV-2 [1]) | IC50 (SARS-CoV-2 [2]; [3]) | IC50 (SARS-CoV-2 [2]; vero e6) | Kd (Spike glycoprotein) |
| --- | --- | --- | --- | --- |
| CC(C)CCC[C@@H](C)[C@H]1CC[C@H]2[C@@H]3CC[C@H]4C[C@@H](O[C@@H]5O[C@H](COS(=O)(=O)[O-])[C@@H](O[C@H]6O[C@H](COS(=O)(=O)[O-])[C@@H](O[C@H]7O[C@H](COS(=O)(=O)[O-])[C@@H](O[C@H]8O[C@H](COS(=O)(=O)[O-])[C@@H](O[C@H]9O[C@H](COS(=O)(=O)[O-])[C@@H](O[C@H]%10O[C@H](COS(=O)(=O)[O-])[C@@H](OS(=O)(=O)[O-])[C@H](OS(=O)(=O)[O-])[C@H]%10OS(=O)(=O)[O-])[C@H](OS(=O)(=O)[O-])[C@H]9OS(=O)(=O)[O-])[C@H](OS(=O)(=O)[O-])[C@H]8OS(=O)(=O)[O-])[C@H](OS(=O)(=O)[O-])[C@H]7OS(=O)(=O)[O-])[C@H](OS(=O)(=O)[O-])[C@H]6OS(=O)(=O)[O-])[C@H](OS(=O)(=O)[O-])[C@H]5OS(=O)(=O)[O-])CC[C@]4(C)[C@H]3CC[C@]12C.[Na+].[Na+].[Na+].[Na+].[Na+].[Na+].[Na+].[Na+].[Na+].[Na+].[Na+].[Na+].[Na+].[Na+].[Na+].[Na+].[Na+].[Na+].[Na+] | 11.9 µg/mL | 65.9 µg/mL |  |  |
| C[C@H](CCC[C@@H](C)[C@H]1CC[C@@H]2C1CC[C@H]1[C@H]2CC[C@H]2C[C@@H](O[C@@H]3O[C@H](COS(=O)(=O)[O-])[C@@H](O[C@H]4O[C@H](COS(=O)(=O)[O-])[C@@H](O[C@H]5O[C@H](COS(=O)(=O)[O-])[C@@H](O[C@H]6O[C@H](COS(=O)(=O)[O-])[C@@H](OS(=O)(=O)[O-])[C@H](OS(=O)(=O)[O-])[C@H]6OS(=O)(=O)[O-])[C@H](OS(=O)(=O)[O-])[C@H]5OS(=O)(=O)[O-])[C@H](OS(=O)(=O)[O-])[C@H]4OS(=O)(=O)[O-])[C@H](OS(=O)(=O)[O-])[C@H]3OS(=O)(=O)[O-])CC[C@@]21C)CN=[N+]=[N-].[Na+].[Na+].[Na+].[Na+].[Na+].[Na+].[Na+].[Na+].[Na+].[Na+].[Na+].[Na+].[Na+] (stereo partly drawn) | 16.7 µg/mL | 109 µg/mL |  |  |
| O=C(CCCCCCCCCCn1cc(CNc2ccc([N+](=O)[O-])c3nonc23)nn1)NCCCCCCCCCCCO[C@@H]1O[C@H](COS(=O)(=O)[O-])[C@@H](O[C@H]2O[C@H](COS(=O)(=O)[O-])[C@@H](O[C@H]3O[C@H](COS(=O)(=O)[O-])[C@@H](O[C@H]4O[C@H](COS(=O)(=O)[O-])[C@@H](OS(=O)(=O)[O-])[C@H](OS(=O)(=O)[O-])[C@H]4OS(=O)(=O)[O-])[C@H](OS(=O)(=O)[O-])[C@H]3OS(=O)(=O)[O-])[C@H](OS(=O)(=O)[O-])[C@H]2OS(=O)(=O)[O-])[C@H](OS(=O)(=O)[O-])[C@H]1OS(=O)(=O)[O-].[Na+].[Na+].[Na+].[Na+].[Na+].[Na+].[Na+].[Na+].[Na+].[Na+].[Na+].[Na+].[Na+] | 166 µg/mL |  | Not Active |  |
| [N-]=[N+]=NCCCCCCCCCCC(=O)NCCCCCCO[C@@H]1O[C@H](COS(=O)(=O)[O-])[C@@H](O[C@H]2O[C@H](COS(=O)(=O)[O-])[C@@H](O[C@H]3O[C@H](COS(=O)(=O)[O-])[C@@H](O[C@H]4O[C@H](COS(=O)(=O)[O-])[C@@H](OS(=O)(=O)[O-])[C@H](OS(=O)(=O)[O-])[C@H]4OS(=O)(=O)[O-])[C@H](OS(=O)(=O)[O-])[C@H]3OS(=O)(=O)[O-])[C@H](OS(=O)(=O)[O-])[C@H]2OS(=O)(=O)[O-])[C@H](OS(=O)(=O)[O-])[C@H]1OS(=O)(=O)[O-].[Na+].[Na+].[Na+].[Na+].[Na+].[Na+].[Na+].[Na+].[Na+].[Na+].[Na+].[Na+].[Na+] | 101 µg/mL | 158 µg/mL |  |  |
| CC(C)CCC[C@@H](C)[C@H]1CC[C@H]2[C@@H]3CC[C@H]4C[C@@H](O[C@H]5O[C@H](COS(=O)(=O)[O-])[C@@H](O[C@H]6O[C@H](COS(=O)(=O)[O-])[C@@H](O[C@H]7O[C@H](COS(=O)(=O)[O-])[C@@H](O[C@H]8O[C@H](COS(=O)(=O)[O-])[C@@H](OS(=O)(=O)[O-])[C@H](OS(=O)(=O)[O-])[C@H]8OS(=O)(=O)[O-])[C@H](OS(=O)(=O)[O-])[C@H]7OS(=O)(=O)[O-])[C@H](OS(=O)(=O)[O-])[C@H]6OS(=O)(=O)[O-])[C@H](OS(=O)(=O)[O-])[C@H]5OS(=O)(=O)[O-])CC[C@]4(C)[C@H]3CC[C@]12C.[Na+].[Na+].[Na+].[Na+].[Na+].[Na+].[Na+].[Na+].[Na+].[Na+].[Na+].[Na+].[Na+] | 148 µg/mL |  | Not Active |  |
| CC(C)CCC[C@@H](C)[C@H]1CC[C@H]2[C@@H]3CC[C@H]4C[C@@H](O[C@@H]5O[C@@H](C(=O)O)[C@@H](O[C@@H]6O[C@@H](C(=O)O)[C@@H](O[C@@H]7O[C@@H](C(=O)O)[C@@H](O[C@@H]8O[C@@H](C(=O)O)[C@@H](OS(=O)(=O)O)[C@H](O)[C@H]8OS(=O)(=O)O)[C@H](O)[C@H]7OS(=O)(=O)O)[C@H](O)[C@H]6OS(=O)(=O)O)[C@H](O)[C@H]5OS(=O)(=O)O)CC[C@]4(C)[C@H]3CC[C@]12C | 48.5 µg/mL (≈ 32.5 µM) |  |  |  |
| CC(C)CCC[C@@H](C)[C@H]1CC[C@H]2[C@@H]3CC[C@H]4C[C@@H](OCc5cn(CCCO[C@@H]6O[C@H](COS(=O)(=O)[O-])[C@@H](O[C@H]7O[C@H](COS(=O)(=O)[O-])[C@@H](O[C@H]8O[C@H](COS(=O)(=O)[O-])[C@@H](O[C@H]9O[C@H](COS(=O)(=O)[O-])[C@@H](OS(=O)(=O)[O-])[C@H](OS(=O)(=O)[O-])[C@H]9OS(=O)(=O)[O-])[C@H](OS(=O)(=O)[O-])[C@H]8OS(=O)(=O)[O-])[C@H](OS(=O)(=O)[O-])[C@H]7OS(=O)(=O)[O-])[C@H](OS(=O)(=O)[O-])[C@H]6OS(=O)(=O)[O-])nn5)CC[C@]4(C)[C@H]3CC[C@]12C.[Na+].[Na+].[Na+].[Na+].[Na+].[Na+].[Na+].[Na+].[Na+].[Na+].[Na+].[Na+].[Na+] | 115 µg/mL | 310 µg/mL |  |  |
| CC(C)CCC[C@@H](C)[C@H]1CC[C@H]2[C@@H]3CC[C@H]4C[C@@H](O[C@@H]5O[C@@H](C(=O)O)[C@@H](O[C@@H]6O[C@@H](C(=O)O)[C@@H](O[C@@H]7O[C@@H](C(=O)O)[C@@H](OS(=O)(=O)O)[C@H](O)[C@H]7OS(=O)(=O)O)[C@H](O)[C@H]6OS(=O)(=O)O)[C@H](O)[C@H]5OS(=O)(=O)O)CC[C@]4(C)[C@H]3CC[C@]12C | 30.4 µg/mL (≈ 24.6 µM) |  |  | 9.18 µM |
| C#CCNC(=O)CC[C@@H](C)[C@H]1CC[C@H]2[C@@H]3CC[C@@H]4C[C@H](O[C@@H]5O[C@H](COS(=O)(=O)[O-])[C@@H](O[C@H]6O[C@H](COS(=O)(=O)[O-])[C@@H](O[C@H]7O[C@H](COS(=O)(=O)[O-])[C@@H](O[C@H]8O[C@H](COS(=O)(=O)[O-])[C@@H](OS(=O)(=O)[O-])[C@H](OS(=O)(=O)[O-])[C@H]8OS(=O)(=O)[O-])[C@H](OS(=O)(=O)[O-])[C@H]7OS(=O)(=O)[O-])[C@H](OS(=O)(=O)[O-])[C@H]6OS(=O)(=O)[O-])[C@H](OS(=O)(=O)[O-])[C@H]5OS(=O)(=O)[O-])CC[C@]4(C)[C@H]3CC[C@]12C.[Na+].[Na+].[Na+].[Na+].[Na+].[Na+].[Na+].[Na+].[Na+].[Na+].[Na+].[Na+].[Na+] | 85.3 µg/mL |  | Not Active |  |
| CCCCCCCCCCCCCCCCCC(=O)NCCCO[C@@H]1O[C@H](COS(=O)(=O)[O-])[C@@H](O[C@H]2O[C@H](COS(=O)(=O)[O-])[C@@H](O[C@H]3O[C@H](COS(=O)(=O)[O-])[C@@H](O[C@H]4O[C@H](COS(=O)(=O)[O-])C(S(=O)(=O)[O-])[C@H](OS(=O)(=O)[O-])[C@H]4OS(=O)(=O)[O-])[C@H](OS(=O)(=O)[O-])[C@H]3OS(=O)(=O)[O-])[C@H](OS(=O)(=O)[O-])[C@H]2OS(=O)(=O)[O-])[C@H](OS(=O)(=O)[O-])[C@H]1OS(=O)(=O)[O-].[Na+].[Na+].[Na+].[Na+].[Na+].[Na+].[Na+].[Na+].[Na+].[Na+].[Na+].[Na+].[Na+] (stereo partly drawn) | 19.5 µg/mL | 70.8 µg/mL |  |  |
| CC(C)CCC[C@@H](C)[C@H]1CC[C@H]2[C@@H]3CC[C@H]4C[C@@H](O[C@@H]5O[C@@H](COS(=O)(=O)O)[C@@H](O[C@@H]6O[C@@H](COS(=O)(=O)O)[C@@H](O[C@@H]7O[C@@H](COS(=O)(=O)O)[C@@H](O[C@@H]8O[C@@H](COS(=O)(=O)O)[C@@H](OS(=O)(=O)O)[C@H](O)[C@H]8OS(=O)(=O)O)[C@H](O)[C@H]7OS(=O)(=O)O)[C@H](O)[C@H]6OS(=O)(=O)O)[C@H](O)[C@H]5OS(=O)(=O)O)CC[C@]4(C)[C@H]3CC[C@]12C | 27.5 µg/mL (≈ 15.6 µM) |  |  |  |
| CC(C)CCC[C@@H](C)[C@H]1CC[C@H]2[C@@H]3CC[C@H]4C[C@@H](O[C@@H]5O[C@@H](COS(=O)(=O)O)[C@@H](O[C@@H]6O[C@@H](COS(=O)(=O)O)[C@@H](O[C@@H]7O[C@@H](COS(=O)(=O)O)[C@@H](OS(=O)(=O)O)[C@H](O)[C@H]7OS(=O)(=O)O)[C@H](O)[C@H]6OS(=O)(=O)O)[C@H](O)[C@H]5OS(=O)(=O)O)CC[C@]4(C)[C@H]3CC[C@]12C | 26.9 µg/mL (≈ 18.7 µM) |  |  | 2.11 µM |
| CC(C)CCC[C@@H](C)[C@H]1CC[C@H]2[C@@H]3CC[C@H]4C[C@@H](O[C@@H]5O[C@@H](COS(=O)(=O)O)[C@@H](O[C@@H]6O[C@@H](COS(=O)(=O)O)[C@@H](OS(=O)(=O)O)[C@H](O)[C@H]6OS(=O)(=O)O)[C@H](O)[C@H]5OS(=O)(=O)O)CC[C@]4(C)[C@H]3CC[C@]12C | 32.1 µg/mL (≈ 28.8 µM) |  |  |  |

— ChEMBL document CHEMBL5523749, “Amphiphilic Heparinoids as Potent Antiviral Agents against SARS-CoV-2” (J Med Chem, 2024)
